Data from patent US9073855B2, “BCL-2 selective apoptosis-inducing agents for the treatment of cancer and immune diseases” (AbbVie Inc., priority 2008, dated 2015).
Like-named read-outs stand apart in the source and are kept apart here.

Key:
FL5.12/Bcl-2 cells = assay: FL5.12/Bcl-2 cell viability assay under IL-3 withdrawal (CellTitre Glo); format: cell-based, murine; conditions: Mus musculus, IL-3 withdrawn 48 hrs, then 24 hrs with compound
In short: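 Bcl-2-overexpressing murine FL5.12 transfectants underwent IL-3 removal for 48 hrs before a 24 hr compound treatment. Cell viability was quantified with CellTitre Glo.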

Canine platelets = assay: Platelet cell viability assay (platelet-rich plasma, Cell Titer Glo); format: cell-based; conditions: Canis lupus familiaris, 5 h, isolated canine platelets ex vivo, five hours at 37° C.
In short: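 Isolated canine platelets were incubated ex vivo with a range of compound concentrations. After 20 min equilibration at room temperature, viability was measured by Cell Titer Glo luminescence.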

circulating platelets [1] = conditions: following injection in beagle canines; cited from earlier work
circulating platelets [2] = conditions: following injection into C57BL/6 mice; cited from earlier work
GST-Bcl-2 = GST-Bcl-2 (Homo sapiens, UniProt P10415); assay: TR-FRET binding assay, GST-Bcl-2 with F-Bak peptide probe; conditions: TR-FRET Binding Affinity, GST-Bcl-2, F-Bak peptide probe
In short: (§1)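 Competitive TR-FRET: GST-fusion protein, fluorescent Bak peptide probe and Tb-labelled anti-GST antibody incubated with compound dilution series (starting 50 μM as 2× stock, 10% DMSO) for 3 h at RT. Excitation 340/35 nm; Ki derived via Wang's exact competitive-binding equation.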

GST-Bcl-XL = GST-Bcl-XL (Homo sapiens, UniProt Q07817); assay: TR-FRET binding assay, GST-Bcl-XL with F-Bak peptide probe; conditions: TR-FRET Binding Affinity, GST-Bcl-XL, F-Bak peptide probe
In short: as §1

Chain of GST-Bcl-XL (Q07817 whole entry): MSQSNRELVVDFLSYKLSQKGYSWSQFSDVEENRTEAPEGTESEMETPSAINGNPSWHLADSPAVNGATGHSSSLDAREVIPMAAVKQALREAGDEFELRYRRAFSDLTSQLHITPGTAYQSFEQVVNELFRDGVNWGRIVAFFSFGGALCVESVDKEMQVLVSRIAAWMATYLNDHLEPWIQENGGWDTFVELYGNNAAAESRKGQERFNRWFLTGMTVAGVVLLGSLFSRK
Chain of GST-Bcl-2 (P10415 whole entry, the tested form may be a part): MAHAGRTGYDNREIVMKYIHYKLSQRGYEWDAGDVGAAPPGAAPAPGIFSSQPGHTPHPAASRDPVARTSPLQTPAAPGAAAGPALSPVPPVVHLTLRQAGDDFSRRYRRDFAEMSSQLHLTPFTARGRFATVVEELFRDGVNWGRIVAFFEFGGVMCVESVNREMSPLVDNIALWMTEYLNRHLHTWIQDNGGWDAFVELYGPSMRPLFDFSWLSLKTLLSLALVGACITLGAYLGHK

| SMILES | EC50 (FL5.12/Bcl-2 cells) [nM] | EC50 (Canine platelets) [nM] | effect on circulating platelets (circulating platelets [1]) | effect on circulating platelets (circulating platelets [2]) | Ki (GST-Bcl-2) [nM] | Ki (GST-Bcl-XL) [nM] |
| --- | --- | --- | --- | --- | --- | --- |
| CN(C)CC[C@H](CSc1ccccc1)Nc1ccc(S(=O)(=O)NC(=O)c2ccc(N3CCN(Cc4ccccc4-c4ccc(Cl)cc4)CC3)cc2)cc1[N+](=O)[O-] [ABT-737, 4-(4-((4′-chloro-1,1′-biphenyl-2-yl)methyl)piperazin-1-yl)-N-((4-(((1R)-3-(dimethylamino)-1-((phenylthio)methyl)propyl)amino)-3-nitrophenyl)sulfonyl)benzamide, reference compound] | 25 | 282 | rapid, concentration dependant decrease in circulating platelets | rapid, concentration dependant decrease in circulating platelets |  |  |
| CN(C)CCCNc1ccc(S(=O)(=O)NC(=O)c2ccc(N3CCN(Cc4ccccc4-c4ccc(Cl)cc4)CC3)cc2Oc2ccc3ccccc3c2)cc1[N+](=O)[O-] [Example 166, 4-{4-[(4′-chloro-1,1′-biphenyl-2-yl)methyl]piperazin-1-yl}-N-[(4-{[3-(dimethylamino)propyl]amino}-3-nitrophenyl)sulfonyl]-2-(2-naphthyloxy)benzamide] | 153 | > 50000 |  |  | 0.459 | 3.27 |
| CN(C)CCCNc1ccc(S(=O)(=O)NC(=O)c2ccc(N3CCN(CC4=C(c5ccc(Cl)cc5)CC(C)(C)CC4)CC3)cc2Oc2ccc3[nH]ccc3c2)cc1S(=O)(=O)C(F)(F)F [Example 170, 4-(4-{[2-(4-chlorophenyl)-4,4-dimethylcyclohex-1-en-1-yl]methyl}piperazin-1-yl)-N-({4-{[3-(dimethylamino)propyl]amino}-3-[(trifluoromethyl)sulfonyl]phenyl}sulfonyl)-2-(1H-indol-5-yloxy)benzamide] | 15 | 7350 |  |  | 0.126 | 3.8 |
| CN(C)CCCNc1ccc(S(=O)(=O)NC(=O)c2ccc(N3CCN(CC4=C(c5ccc(Cl)cc5)CC(C)(C)CC4)CC3)cc2Oc2ccc3[nH]ccc3c2)cc1C(F)(F)F [Example 171, 4-(4-{[2-(4-chlorophenyl)-4,4-dimethylcyclohex-1-en-1-yl]methyl}piperazin-1-yl)-N-{[4-{[3-(dimethylamino)propyl]amino}-3-(trifluoromethyl)phenyl]sulfonyl}-2-(1H-indol-5-yloxy)benzamide] | 276 | > 50000 |  |  | 2.94 | 52.1 |
| CN(C)CCCNc1ccc(S(=O)(=O)NC(=O)c2ccc(N3CCN(CC4=C(c5ccc(Cl)cc5)CC(C)(C)CC4)CC3)cc2Oc2ccc3[nH]ccc3c2)cc1C#N [Example 172, 4-(4-{[2-(4-chlorophenyl)-4,4-dimethylcyclohex-1-en-1-yl]methyl}piperazin-1-yl)-N-[(3-cyano-4-{[3-(dimethylamino)propyl]amino}phenyl)sulfonyl]-2-(1H-indol-5-yloxy)benzamide] | 194 | > 50000 |  |  | 2.05 | 65.7 |
| CC1(C)CCC(CN2CCN(c3ccc(C(=O)NS(=O)(=O)c4ccc(NC5CCN(C6CCOCC6)CC5)c([N+](=O)[O-])c4)c(Oc4ccc5[nH]ccc5c4)c3)CC2)=C(c2ccc(Cl)cc2)C1 [Example 173, 4-(4-{[2-(4-chlorophenyl)-4,4-dimethylcyclohex-1-en-1-yl]methyl}piperazin-1-yl)-2-(1H-indol-5-yloxy)-N-({3-nitro-4-[(1-tetrahydro-2H-pyran-4-ylpiperidin-4-yl)amino]phenyl}sulfonyl)benzamide] | 11 | > 50000 |  |  | 0.108 | 22.1 |
| CN1CCN(Nc2ccc(S(=O)(=O)NC(=O)c3ccc(N4CCN(CC5=C(c6ccc(Cl)cc6)CC(C)(C)CC5)CC4)cc3Oc3ccc4[nH]ccc4c3)cc2[N+](=O)[O-])CC1 [Example 174, 4-(4-{[2-(4-chlorophenyl)-4,4-dimethylcyclohex-1-en-1-yl]methyl}piperazin-1-yl)-2-(1H-indol-5-yloxy)-N-({4-[(4-methylpiperazin-1-yl)amino]-3-nitrophenyl}sulfonyl)benzamide] | 11 | 19500 |  |  | 0.105 | 62.1 |
